What was measured:
[1] = system: CXCR4 mRNA in human umbilical cord blood derived CD34+ cells; assay: CXCR4 qPCR using the Fluidigm platform; type: cell-based; settings: 10 μM single agent in SFEM, 4 h, 37° C., compared to DMSO treated cells
Protocol: Real-time PCR transcript quantitation of gene expression from ex vivo treated human umbilical cord blood derived CD34^+ cells (Stem Cell Technologies, Vancouver, BC, Canada) was performed using the BioMark Dynamic Array microfluidics system (Fluidigm Corporation, South San Francisco, Calif., USA).
CD34^+ cells derived from cord blood or mobilized peripheral blood were treated in Serum-Free Expansion Medium (SFEM; e.g., StemSpan® from StemCell Technologies, Inc.) for four hours at 37° C., 5% CO2 with 10 uM prostaglandin pathway agonist alone or in combination with 10 uM of a glucocorticoid. Prostaglandin pathway agonists included 16,16-dimethyl PGE2 (dmPGE2), 20-ethyl PGE2 (ePGE2), 15(S)-15-methyl PGE2 (mPGE2), and PGE2. Glucocorticoids included hydrocortisone, dexamethasone, medrysone, alclometasone, or triamcinalone. After treatment, cells were washed with SFEM and centrifuged at 300 g for 10 minutes.
Total RNA was isolated then isolated from treated cells using Pico Pure RNA Isolation Kit (Molecular Devices, Sunnyvale, Calif., USA). […]
Results were analyzed using BioMark Real-Time PCR Analysis software. Average Cts were calculated from the sample replicates and delta-delta Cts (ΔΔCt) were calculated using the mean of 3 reference genes (GAPDH, HPRT1, QARS) against a vehicle only sample. […]

[2] = system: CXCR4 mRNA in cord blood derived CD34+ cells; assay: CXCR4 qPCR using the Applied Biosystems StepOnePlus, cord blood CD34+ cells; type: cell-based, human
Protocol: (§1) Real-time PCR transcript quantitation from ex vivo treated cord CD34^+ cells (Stem Cell Technologies, Vancouver, BC, Canada) and mobilized peripheral blood CD34^+ cells (All Cells, LLC, Emoryville, Calif., USA) was performed using the Applied Biosystems StepOne Plus system (Life Technologies Corporation, Carlsbad, Calif., USA) (see FIG. 3). […] After treatment, cells were washed with SFEM and centrifuged at 300 g for 10 minutes.
(§2) Total RNA was then isolated from treated cells using Pico Pure RNA Isolation Kit (Molecular Devices, Sunnyvale, Calif., USA). Complimentary DNA (cDNA) was reverse transcribed from 50 ng of isolated total RNA using the High-Capacity cDNA Reverse Transcription Kit (Life Technologies).
(§3) Real-Time PCR analysis was run on the cDNA samples in duplicate. The reaction mix contained 1 μL Gene Specific Taqman Assay (20λ) and 10 μL Gene Expression Master Mix (Life Technologies) with the remaining volume of 9 μL contained 10 ng cDNA and sterile diH2O.
(§4) CXCR4 results (assay from Table 1) were analyzed using Applied Biosystems StepOne Software v2.1 Analysis software. Average Cts were calculated from the sample replicates and delta-delta Cts (ΔΔCt) were calculated using GAPDH results (assay from Table 1) as a reference gene against a vehicle only sample. […] Error bars depict +/− the Standard Deviation (SD) of the replicate measurements (See FIGS. 1-3, 5, and 6).

[3] = system: CXCR4 mRNA in mobilized peripheral blood CD34+ cells; assay: CXCR4 qPCR using the Applied Biosystems StepOnePlus, mobilized peripheral blood CD34+ cells; type: cell-based, human
Protocol: as §1, §2, §3, §4

[4] = system: CXCR4 surface protein on CD34+ cells from human bone marrow; assay: CXCR4 surface protein expression by flow cytometry, bone marrow CD34+ cells; type: cell-based; settings: BM CD34+ cells, 10 μM each agent, 4 hours at 37° C. in SFEM, then 2 hours in SFEM
[5] = system: CD34+ cells migrating towards SDF1; assay: SDF-1 transwell migration assay; type: cell-based, human; settings: cells treated 4 hours at 37° C. with 10 μM, 50 ng/mL SDF1 in lower chamber, 2.5 hours; listed as dmPGE2
Protocol: Transwell migration assays were performed using 96-well chemotaxis chambers, […] pore size polycarbonate membrane (Corning Inc., Corning, N.Y.) in accordance with manufacturer's instructions. Briefly, CD34^+ cells were then treated for 4 hours at 37° C. with 16,16-dimethyl PGE2 (dmPGE2), dmPGE2 and glucocorticoid, or DMSO control at a concentration of 10 μM in StemSpan® media (Stem Cell Technology, Vancouver, Canada). The cells were then washed by centrifugation (300×g for 10 minutes) and resuspended in transwell assay buffer (Phenol Red Free RPMI media (Mediatech), 0.5% lipid free BSA (Sigma-Aldrich) at a concentration of 40,000-60,000 cells/75 μl.
To test the duration of the treatment effects, one portion of treated cells was washed by centrifugation (300×g for 10 minutes) and resuspended in StemSpan® media for 4 hours at 37° C. without dmPGE2, glucocorticoids, or DMSO and then washed again by centrifugation (300×g for 10 minutes) and resuspended in transwell assay buffer (Phenol Red Free RPMI media (Mediatech), 0.5% lipid free BSA (Sigma-Aldrich) at a concentration of 40,000-60,000 cells/75 μl.
Seventy-five μl of cell suspension was added to the upper chamber of the plate, while 235 μl of transwell assay media containing 0 or 50 ng/ml SDF1α (R&D system, Minneapolis, Minn.) was added to the bottom well. […]

Q: Which “increase in CXCR4 mRNA expression” value [1] does the source give for CCCCC(C)(C)[C@H](O)/C=C/[C@H]1[C@H](O)CC(=O)[C@@H]1C/C=C\CCCC(=O)O [16,16-dimethyl PGE2] here?
A: 22 fold

Q: And the “CXCR4 RNA expression” value ([2]; cord blood CD34+ cells, 10 μM, 2 and 4 hours at 37° C. in SFEM, compared to DMSO treated cells)?
A: increase

Q: What about the “increase in CXCR4 mRNA expression” value ([2]; cord blood derived CD34+ cells, 4 hour treatment in SFEM, 10 μM each agent, against vehicle only sample) of the same compound?
A: 22 fold

Q: And the “increase in CXCR4 mRNA expression” value ([3]; CD34+ cells from mobilized peripheral blood, 4 hour treatment in SFEM, 10 μM each agent, against vehicle only sample)?
A: 27 fold

Q: What about the “CXCR4 RNA expression” value ([3]; mPB CD34+ cells, 10 μM, 2 and 4 hours at 37° C. in SFEM, compared to DMSO treated cells) of the same compound?
A: increase

Q: And the “increase in the level of CXCR4 protein expression” value [4]?
A: 12 fold

Q: What about the “SDF1-driven cell migration (% of cells added), words” value [5] of the same compound?
A: increased SDF1-driven cell migration compared to the DMSO control

Source: patent US11052118B2, “Enhanced stem cell composition” (Fate Therapeutics, Inc., priority 2011, dated 2021)
